Data published in ChEMBL document CHEMBL5584345, “Discovery of Novel 2-Aminopyridine-Based and 2-Aminopyrimidine-Based Derivatives as Potent CDK/HDAC Dual Inhibitors for the Treatment of Refractory Solid Tumors and Hematological Malignancies” (J Med Chem, 2024).

Legend:
Histone deacetylase 1 = Histone deacetylase 1 (Homo sapiens, UniProt Q13547)
Description: Inhibition of human recombinant HDAC1 using Ac-Lys-Tyr-Lys(eta-acetyl)-AMC as substrate incubated for 24 hrs by fluorescence based Envision plate reader analysis

[1] = molecular target: Protein deacetylase HDAC6 (Homo sapiens, UniProt Q9UBN7)
Description: Inhibition of human recombinant HDAC6 using Boc-Lys(eta-acetyl)-AMC as substrate incubated for 24 hrs by fluorescence based Envision plate reader analysis

Histone deacetylase 3 = Histone deacetylase 3 (Homo sapiens, UniProt O15379)
[2] = molecular target: Cyclin-dependent kinase 9 (Homo sapiens, UniProt P50750)
Description: Inhibition of CDK9 (unknown origin) using ULight 4EBP1 peptide as substrate incubated for 2 hrs in presence of ATP by FRET assay

[3] = molecular target: Cyclin-dependent kinase 7 (Homo sapiens, UniProt P50613)
Description: Inhibition of CDK7 (unknown origin) using ULight 4EBP1 peptide as substrate incubated for 2 hrs in presence of ATP by FRET assay

Histone deacetylase 4 = Histone deacetylase 4 (Homo sapiens, UniProt P56524); experiment: Inhibition of human recombinant HDAC4 using Ac-Leu-Gly-Lys(Tfa)-AMC as substrate incubated for 24 hrs by fluorescence based Envision plate reader analysis
[4] = molecular target: Cyclin-dependent kinase 2 (Homo sapiens, UniProt P24941); experiment: Inhibition of CDK2 (unknown origin) using ULight 4EBP1 peptide as substrate incubated for 2 hrs in presence of ATP by FRET assay
[5] = molecular target: Serine/threonine-protein kinase pim-1 (Homo sapiens, UniProt P11309); experiment: Inhibition of PIM1 (unknown origin)
[6] = molecular target: Serine/threonine-protein kinase 17B (Homo sapiens, UniProt O94768); experiment: Inhibition of DRAK2 (unknown origin)
[7] = molecular target: Tyrosine-protein kinase JAK3 (Homo sapiens, UniProt P52333); experiment: Inhibition of JAK3 (unknown origin)
[8] = molecular target: Epidermal growth factor receptor (Homo sapiens, UniProt P00533); experiment: Inhibition of EGFR (unknown origin)
[9] = molecular target: Receptor-type tyrosine-protein kinase FLT3 (Homo sapiens, UniProt P36888); experiment: Inhibition of FLT3 (unknown origin)
[10] = molecular target: Ribosomal protein S6 kinase beta-1 (Homo sapiens, UniProt P23443); experiment: Inhibition of P70S6K (unknown origin)
[11] = molecular target: Serine/threonine-protein kinase Chk1 (Homo sapiens, UniProt O14757); experiment: Inhibition of CHK1 (unknown origin)
Aurora kinase A = Aurora kinase A (Homo sapiens, UniProt O14965); experiment: Inhibition of AurorA (unknown origin)
[12] = molecular target: Tyrosine-protein kinase BTK (Homo sapiens, UniProt Q06187); experiment: Inhibition of BTK (unknown origin)
[13] = molecular target: Interleukin-1 receptor-associated kinase 4 (Homo sapiens, UniProt Q9NWZ3); experiment: Inhibition of IRAK4 (unknown origin)
KG-1 = experiment: Antiproliferative activity against human KG-1 cells incubated for 72 hrs by celltiter-glo luminescent assay; details: KG-1, 72 h
MV4-11 [14] = experiment: Antiproliferative activity against human MV4-11 cells incubated for 72 hrs by celltiter-glo luminescent assay; details: MV4-11, 72 h
Rec1 = experiment: Antiproliferative activity against human REC1 cells incubated for 72 hrs by celltiter-glo luminescent assay; details: Rec1, 72 h
PC-9 = experiment: Antiproliferative activity against human PC-9 cells incubated for 72 hrs by celltiter-glo luminescent assay; details: PC-9, 72 h
A549 = experiment: Antiproliferative activity against human A549 cells incubated for 72 hrs by celltiter-glo luminescent assay; type: functional, cell-based; details: A549, 72 h
HT-29 = experiment: Antiproliferative activity against human HT-29 cells incubated for 72 hrs by celltiter-glo luminescent assay; details: HT-29, 72 h
CESS = experiment: Antiproliferative activity against human CESS cells incubated for 72 hrs by celltiter-glo luminescent assay
MV4-11 [15] = experiment: Antitumor activity against human MV4-11 cells xenografted in female nu/nu mouse assessed as test to control ratio at 50 mg/kg, sc bid for 19 days; type: functional; details: time 19 day

Sequence of Histone deacetylase 4 (P56524 whole entry): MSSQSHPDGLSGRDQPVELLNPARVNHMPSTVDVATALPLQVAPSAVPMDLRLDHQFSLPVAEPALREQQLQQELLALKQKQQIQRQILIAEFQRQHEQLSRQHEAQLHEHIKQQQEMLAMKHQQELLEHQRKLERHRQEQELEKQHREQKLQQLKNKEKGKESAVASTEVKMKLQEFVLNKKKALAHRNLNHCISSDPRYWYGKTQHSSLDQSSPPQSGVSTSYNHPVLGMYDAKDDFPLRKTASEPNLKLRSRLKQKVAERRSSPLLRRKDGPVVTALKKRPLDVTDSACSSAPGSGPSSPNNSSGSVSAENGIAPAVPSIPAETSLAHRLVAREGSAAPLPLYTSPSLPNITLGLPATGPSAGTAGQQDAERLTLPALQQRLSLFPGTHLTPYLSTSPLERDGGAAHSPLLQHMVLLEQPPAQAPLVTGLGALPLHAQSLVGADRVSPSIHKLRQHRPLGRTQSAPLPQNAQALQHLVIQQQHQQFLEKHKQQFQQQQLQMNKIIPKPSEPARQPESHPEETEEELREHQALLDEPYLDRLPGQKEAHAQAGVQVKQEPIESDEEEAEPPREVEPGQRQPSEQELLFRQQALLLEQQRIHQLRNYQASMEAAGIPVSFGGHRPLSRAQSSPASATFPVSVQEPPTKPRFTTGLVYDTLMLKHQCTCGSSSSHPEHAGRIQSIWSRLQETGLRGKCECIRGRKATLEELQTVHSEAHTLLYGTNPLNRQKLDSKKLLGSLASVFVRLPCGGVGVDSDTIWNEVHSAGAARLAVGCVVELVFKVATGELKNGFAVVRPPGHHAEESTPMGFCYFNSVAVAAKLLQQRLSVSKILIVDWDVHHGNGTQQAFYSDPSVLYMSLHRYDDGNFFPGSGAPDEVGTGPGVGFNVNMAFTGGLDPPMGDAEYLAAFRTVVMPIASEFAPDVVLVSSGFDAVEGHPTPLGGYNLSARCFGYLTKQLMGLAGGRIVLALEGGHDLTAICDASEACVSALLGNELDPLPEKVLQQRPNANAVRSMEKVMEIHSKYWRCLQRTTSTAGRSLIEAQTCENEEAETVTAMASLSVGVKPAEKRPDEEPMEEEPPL
Sequence of Cyclin-dependent kinase 9 (P50750 whole entry): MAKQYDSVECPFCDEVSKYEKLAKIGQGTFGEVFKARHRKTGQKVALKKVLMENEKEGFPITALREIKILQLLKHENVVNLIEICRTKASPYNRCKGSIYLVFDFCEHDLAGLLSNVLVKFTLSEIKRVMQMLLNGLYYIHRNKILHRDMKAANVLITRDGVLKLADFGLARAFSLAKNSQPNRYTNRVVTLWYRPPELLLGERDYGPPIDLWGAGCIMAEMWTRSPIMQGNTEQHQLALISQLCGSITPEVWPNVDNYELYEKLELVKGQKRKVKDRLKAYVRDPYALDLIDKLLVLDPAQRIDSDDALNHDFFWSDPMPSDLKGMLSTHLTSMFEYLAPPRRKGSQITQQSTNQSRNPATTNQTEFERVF
Sequence of Cyclin-dependent kinase 7 (P50613 whole entry): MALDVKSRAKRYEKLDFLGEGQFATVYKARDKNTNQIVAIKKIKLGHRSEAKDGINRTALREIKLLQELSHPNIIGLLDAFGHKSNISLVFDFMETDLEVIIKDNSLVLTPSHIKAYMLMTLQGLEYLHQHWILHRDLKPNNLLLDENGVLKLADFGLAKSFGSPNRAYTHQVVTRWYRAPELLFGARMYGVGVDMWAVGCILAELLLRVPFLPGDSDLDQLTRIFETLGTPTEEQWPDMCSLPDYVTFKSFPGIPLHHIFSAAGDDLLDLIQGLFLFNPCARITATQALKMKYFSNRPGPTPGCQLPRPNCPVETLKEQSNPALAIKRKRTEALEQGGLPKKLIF
Sequence of Histone deacetylase 1 (Q13547 whole entry): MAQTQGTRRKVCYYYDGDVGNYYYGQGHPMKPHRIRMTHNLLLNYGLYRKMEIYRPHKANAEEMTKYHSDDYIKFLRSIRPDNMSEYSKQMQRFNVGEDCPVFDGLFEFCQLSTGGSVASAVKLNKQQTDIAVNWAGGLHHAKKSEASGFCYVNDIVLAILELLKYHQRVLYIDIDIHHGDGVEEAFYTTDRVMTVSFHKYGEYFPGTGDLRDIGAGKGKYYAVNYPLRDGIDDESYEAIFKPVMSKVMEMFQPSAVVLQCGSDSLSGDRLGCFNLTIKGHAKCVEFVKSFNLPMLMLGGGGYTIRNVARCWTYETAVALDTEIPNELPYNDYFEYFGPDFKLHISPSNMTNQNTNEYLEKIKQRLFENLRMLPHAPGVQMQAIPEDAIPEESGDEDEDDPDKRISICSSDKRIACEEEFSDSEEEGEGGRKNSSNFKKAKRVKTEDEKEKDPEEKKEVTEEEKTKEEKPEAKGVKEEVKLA
Sequence of Serine/threonine-protein kinase Chk1 (O14757 whole entry): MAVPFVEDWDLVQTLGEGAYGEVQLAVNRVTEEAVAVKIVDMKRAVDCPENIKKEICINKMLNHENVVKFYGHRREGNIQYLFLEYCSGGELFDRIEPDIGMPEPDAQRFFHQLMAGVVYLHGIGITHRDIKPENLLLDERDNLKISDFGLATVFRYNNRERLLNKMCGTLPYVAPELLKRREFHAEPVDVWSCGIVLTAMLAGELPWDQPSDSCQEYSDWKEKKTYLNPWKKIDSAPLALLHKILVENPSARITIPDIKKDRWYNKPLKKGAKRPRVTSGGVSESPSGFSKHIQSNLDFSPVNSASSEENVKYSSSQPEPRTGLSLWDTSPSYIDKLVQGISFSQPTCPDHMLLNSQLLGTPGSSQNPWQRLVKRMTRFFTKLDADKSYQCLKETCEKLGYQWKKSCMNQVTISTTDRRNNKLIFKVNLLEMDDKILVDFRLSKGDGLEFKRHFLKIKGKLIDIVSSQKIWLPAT
Sequence of Serine/threonine-protein kinase 17B (O94768 whole entry): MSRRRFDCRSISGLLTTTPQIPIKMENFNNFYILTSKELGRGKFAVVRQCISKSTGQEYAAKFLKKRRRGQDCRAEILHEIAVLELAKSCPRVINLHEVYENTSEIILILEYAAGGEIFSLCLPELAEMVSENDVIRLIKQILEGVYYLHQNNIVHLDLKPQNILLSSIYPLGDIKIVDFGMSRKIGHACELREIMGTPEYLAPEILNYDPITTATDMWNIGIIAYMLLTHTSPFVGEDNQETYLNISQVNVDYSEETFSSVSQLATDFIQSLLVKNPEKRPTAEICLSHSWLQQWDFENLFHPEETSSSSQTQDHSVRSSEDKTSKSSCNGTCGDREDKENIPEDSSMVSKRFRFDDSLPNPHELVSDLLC
Sequence of Epidermal growth factor receptor (P00533 whole entry): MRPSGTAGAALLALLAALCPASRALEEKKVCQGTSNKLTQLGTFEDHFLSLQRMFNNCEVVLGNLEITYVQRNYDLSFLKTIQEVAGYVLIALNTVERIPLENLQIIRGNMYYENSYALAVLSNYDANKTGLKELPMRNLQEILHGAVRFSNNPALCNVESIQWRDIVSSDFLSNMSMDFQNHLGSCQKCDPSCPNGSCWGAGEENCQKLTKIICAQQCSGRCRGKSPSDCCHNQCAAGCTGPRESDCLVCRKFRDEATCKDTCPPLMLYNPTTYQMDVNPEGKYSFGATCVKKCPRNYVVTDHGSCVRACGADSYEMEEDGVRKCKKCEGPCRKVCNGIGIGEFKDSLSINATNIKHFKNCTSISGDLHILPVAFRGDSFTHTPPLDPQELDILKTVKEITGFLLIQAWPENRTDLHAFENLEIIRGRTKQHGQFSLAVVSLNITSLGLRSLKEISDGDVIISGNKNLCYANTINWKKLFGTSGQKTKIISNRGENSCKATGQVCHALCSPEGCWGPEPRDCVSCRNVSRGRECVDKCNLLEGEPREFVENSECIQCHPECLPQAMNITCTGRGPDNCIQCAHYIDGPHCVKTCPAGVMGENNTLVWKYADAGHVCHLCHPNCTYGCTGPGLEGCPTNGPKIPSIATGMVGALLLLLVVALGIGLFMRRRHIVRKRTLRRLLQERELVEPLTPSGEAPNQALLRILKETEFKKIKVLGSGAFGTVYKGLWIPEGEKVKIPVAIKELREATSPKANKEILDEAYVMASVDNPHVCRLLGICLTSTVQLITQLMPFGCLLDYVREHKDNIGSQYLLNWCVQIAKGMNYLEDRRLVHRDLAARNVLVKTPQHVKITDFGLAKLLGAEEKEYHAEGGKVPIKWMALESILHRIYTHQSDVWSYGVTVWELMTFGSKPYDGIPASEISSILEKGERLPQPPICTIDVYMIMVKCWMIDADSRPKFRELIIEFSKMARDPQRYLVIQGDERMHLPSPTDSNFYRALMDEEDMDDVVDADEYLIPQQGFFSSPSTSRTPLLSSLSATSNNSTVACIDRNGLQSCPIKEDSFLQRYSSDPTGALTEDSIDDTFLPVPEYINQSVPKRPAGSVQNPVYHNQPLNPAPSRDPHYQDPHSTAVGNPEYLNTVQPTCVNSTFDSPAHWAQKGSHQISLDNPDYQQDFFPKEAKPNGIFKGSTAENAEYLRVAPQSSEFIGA
Sequence of Aurora kinase A (O14965 whole entry): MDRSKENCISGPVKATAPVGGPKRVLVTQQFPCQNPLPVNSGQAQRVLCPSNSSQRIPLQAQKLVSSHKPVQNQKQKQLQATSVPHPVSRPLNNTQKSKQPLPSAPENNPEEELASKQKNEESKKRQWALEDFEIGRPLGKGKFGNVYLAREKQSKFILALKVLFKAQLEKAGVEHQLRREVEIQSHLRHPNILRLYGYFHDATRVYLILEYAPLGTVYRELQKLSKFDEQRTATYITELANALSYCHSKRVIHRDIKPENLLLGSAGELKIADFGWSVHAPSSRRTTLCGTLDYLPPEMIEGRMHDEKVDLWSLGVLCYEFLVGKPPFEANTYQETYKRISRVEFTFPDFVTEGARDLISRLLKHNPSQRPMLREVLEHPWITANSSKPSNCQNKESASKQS

Compound: COc1cc(F)ccc1-c1cc(Nc2ccc(/C=C/C(=O)Nc3ccccc3N)cc2)ncc1F
- IC50 (Histone deacetylase 1): > 20 µM
- IC50 [1]: > 20 µM
- IC50 (Histone deacetylase 3): 3.55 µM
- IC50 [2]: 0.0684 µM

Compound: COc1cc(F)ccc1-c1cc(Nc2cnn(CCCCCCC(=O)NO)c2)ncc1F
- IC50 [3]: > 10 µM
- IC50 (Histone deacetylase 4): > 10 µM

Compound: CCCNNC(=O)c1ccc(Cn2cc(Nc3ncc(Cl)c(-c4cnc5ccc(-c6ccccc6)cn45)n3)cn2)cc1
- IC50 [3]: > 10 µM
- IC50 [4]: > 10 µM
- IC50 (Histone deacetylase 4): > 20 µM

Compound: CCCNNC(=O)CCCCCn1cc(Nc2ncc(Cl)c(-c3cnc4ccccn34)n2)cn1
- IC50 [3]: > 10 µM
- IC50 [4]: > 10 µM
- IC50 (Histone deacetylase 4): > 20 µM

Compound: COc1cc(F)ccc1-c1cc(Nc2ccc(NC(=O)CCCCCCC(=O)Nc3ccccc3N)cc2)ncc1F
- IC50 [3]: > 10 µM
- IC50 (Histone deacetylase 4): > 20 µM

Compound: CCCNNC(=O)CCCCCCn1cc(Nc2ncc(Cl)c(-c3cnc4ccccn34)n2)cn1
- IC50 [3]: > 10 µM
- IC50 [4]: > 10 µM
- IC50 (Histone deacetylase 4): > 20 µM

Compound: N#CC1(CNc2cccc(-c3cc(Nc4cnn(Cc5ccc(C(=O)Nc6ccccc6N)cc5)c4)ncc3Cl)n2)CCOCC1
- IC50 [5]: > 10 µM
- IC50 [6]: > 10 µM
- IC50 [7]: > 10 µM
- IC50 [8]: > 10 µM
- IC50 [9]: > 10 µM
- IC50 [10]: > 10 µM
- IC50 (Histone deacetylase 4): > 20 µM
- IC50 [11]: > 10 µM
- IC50 (Aurora kinase A): > 10 µM
- IC50 [12]: > 10 µM
- IC50 [13]: > 10 µM

Compound: O=C(CCCCCCn1cc(Nc2ncc(Cl)c(-c3cnc4ccccn34)n2)cn1)NO
- IC50 [3]: 2.81 µM
- IC50 (Histone deacetylase 4): > 10 µM

Compound: N#CC1(CNc2cccc(-c3cc(Nc4cnn(CCCCCCC(=O)Nc5ccccc5N)c4)ncc3Cl)n2)CCOCC1
- IC50 [3]: > 10 µM
- IC50 (Histone deacetylase 4): > 20 µM

Compound: CCCNNC(=O)CCCCCn1cc(Nc2ncc(Cl)c(-c3cnc4ccc(-c5ccccc5)cn34)n2)cn1
- IC50 [3]: > 10 µM
- IC50 (Histone deacetylase 4): > 20 µM

Compound: COc1cc(F)ccc1-c1cc(Nc2ccc(NC(=O)CCCCCCC(=O)NO)cc2)ncc1F
- IC50 [3]: > 10 µM
- IC50 (Histone deacetylase 4): > 10 µM

Compound: COC[C@@H](C)N[C@H]1CC[C@H](Nc2cc(-c3cccc(NCC4(C#N)CCOCC4)n3)c(Cl)cn2)CC1
- IC50 (KG-1): 0.02 µM
- IC50 (MV4-11 [14]): 0.003 µM
- IC50 (Rec1): 0.03 µM
- IC50 (PC-9): 0.03 µM
- IC50 (A549): 5.78 µM
- IC50 [3]: > 10 µM
- IC50 (HT-29): 0.02 µM
- IC50 (CESS): 0.01 µM
- IC50 [4]: > 10 µM
- IC50 [2]: 0.0041 µM

Compound: CCCNNC(=O)c1ccc(Cn2cc(Nc3ncc(Cl)c(-c4cnc5ccccn45)n3)cn2)cc1
- IC50 [5]: > 10 µM
- IC50 [6]: > 10 µM
- IC50 [7]: 2.38 µM
- IC50 [8]: > 10 µM
- IC50 [9]: 0.0304 µM
- IC50 [10]: 0.371 µM
- IC50 [3]: 0.973 µM
- IC50 (Histone deacetylase 4): > 20 µM
- IC50 [11]: > 10 µM
- IC50 (Aurora kinase A): > 10 µM
- IC50 [12]: 9.13 µM
- IC50 [13]: > 10 µM

Compound: N#CC1(CNc2cccc(-c3cc(Nc4cnn(CCCCCC(=O)NO)c4)ncc3Cl)n2)CCOCC1
- IC50 [3]: > 10 µM
- IC50 (Histone deacetylase 4): 2.5 µM

Compound: N#CC1(CNc2cccc(-c3cc(Nc4cnn(Cc5ccc(C(=O)NO)cc5)c4)ncc3Cl)n2)CCOCC1
- IC50 [3]: > 10 µM
- IC50 (Histone deacetylase 4): 1.08 µM

Compound: N#CC1(CNc2cccc(-c3cc(Nc4cnn(CCCCCCC(=O)NO)c4)ncc3Cl)n2)CCOCC1
- IC50 [3]: > 10 µM
- IC50 (Histone deacetylase 4): 4.4 µM

Compound: COc1cc(F)ccc1-c1cc(Nc2cnn(CCCCCC(=O)NO)c2)ncc1F
- IC50 [3]: > 10 µM
- IC50 (Histone deacetylase 4): > 10 µM

Compound: O=C(/C=C/c1ccc(Nc2ncc(Cl)c(OC3CCCCC3)n2)cc1)NO
- IC50 (Histone deacetylase 1): > 10 µM
- IC50 [1]: 0.646 µM
- IC50 (Histone deacetylase 3): 7.21 µM
- IC50 [2]: 7.89 µM

Compound: Nc1ccn([C@@H]2O[C@H](CO)[C@@H](O)[C@@H]2O)c(=O)n1 [CYTARABINE]
- T/C (MV4-11 [15]): 33.41%

Compound: O=C(CCCCCCC(=O)Nc1ccccc1)NO [VORINOSTAT]
- IC50 (KG-1): 0.79 µM

Compound: O=C(CCCCCn1cc(Nc2ncc(Cl)c(-c3cnc4ccccn34)n2)cn1)NO
- IC50 [3]: 0.566 µM
- IC50 (Histone deacetylase 4): > 10 µM
